The text below walks through data of US20210177814A1, “USE OF GUANABENZ OR DERIVATES THEREOF FOR THE TREATMENT OF TYPE I IFN-DEPENDENT PATHOLOGIES” (INSERM (Institut National de la Santé et de la Recherche …, priority 2018, published 2021).

The assay has as its system dendritic cells (TLR stimulation). The experiment in a line: IFN-β and IL-6 production by WT and GADD34ΔC/ΔC DCs stimulated with TLR ligands. It is filed as cell-based, mouse. Particulars: GBZ 50 μM. As for the experimental part:
BM-derived DCs were differentiated in vitro from the bone marrow of 6-8 weeks old male mice, using either FLT3 ligand or GM-CSF. Flt3L-DCs were used for experiments between days 6 and 7. Flt3L was produced using B16-Flt3L hybridoma cells. Bone marrow progenitors were plated at 1.5 10^6 cells/ml, 4 ml/well in 6 well plate, and cultivated with RPMI (GIBCO), 10% FCS (Sigma Aldrich), 100 units/ml penicillin and 100 μg/ml streptomycin (GIBCO), 50 μM b-mercaptoethanol (VWR) and Flt3L. For sorted Flt3L-DCs, cells were gently harvested at day 7 with cold PBS 2% FCS, centrifuged 1200 rpm 5 min at 4° C., counted and stained with for 30 mins at 4° C. Cells were sorted with the FACS ARIASorp. Cells were kept on ice all the time. After sorting, cells were resuspended in supplemented Flt3L-DCs medium at the concentration of 0.2 0.10^6 cells/well and plated at in a 96 wells plate U bottom. GM-CSF DCs were produced and used for experiments at day 6 of differentiation.
Splenocytes were dissociated injecting Liberase TL, followed by 25 min incubation at 37° C. Cells were washed using MACS buffer (PBS 1X+1% FBS+2 mM EDTA) and passed in a cell strainer 70 μm, then centrifuged 5 min at 450 RCF, 4° C. Red blood cells were lysed using the commercial buffer from eBioscience. Dendritic cells were purified using CD11c^+ positive selection kit from Miltenyi. Splenic DCs were then resuspended in the same medium as for Flt3L-DCs at 1.10^6 cells/ml and plated in a 12 wells plate, 2 ml×well. B lymphocytes were purified using B cell isolation kit, a negative selection kit from Miltenyi. B cells were then resuspended in a medium composed of RPMI (GIBCO), 10% FCS (Sigma Aldrich), lx glutamine, 1× non-essential amino acids, 10 mM HEPES (all the previous from GIBCO), 50 μM b-mercaptoethanol (VWR). Cells were plated at 1×10^6 cells/well in 96 well plate, flat.
Mouse IFN-β quantification in culture supernatant was performed using the Mouse Interferon Beta ELISA kit (PBL InterferonSource); mouse IL-6, TNFα, IL-10, human TNFα and human IFNα were quantified using ELISA kit (eBioscience) respectively, according to manufacturer instructions.
We have previously shown that GM-CSF-induced bone-marrow-derived DCs from GADD34^ΔC/ΔC mouse display limited capacity to express IFNβ and IL-6 in response to the dsRNA mimic polyriboinosinic:polyribocytidylic acid (poly(I:C)). We investigated whether this observation could be extended to other DC subsets and TLR ligands. WT and GADD34^ΔC/ΔC DC isolated directly from spleen or generated in vitro from bone-marrow progenitors, using either Flt3L- or GM-CSF-induced differentiation, were submitted to stimulation with LPS, poly(I:C) or CpG ODN and analyzed for IFN-β and IL-6 production (data not shown). […]

The mark [1] stands for this setting: GADD34ΔC/ΔC Flt3L-DCs, CpG ODN stimulation.

Turning to `NC(N)=N/N=C/c1c(Cl)cccc1Cl` [GBZ, 2-(2,6-dichlorobenzylidene)-hydrazinecarboximidamide], under setting [1], the IFN-β production result is “incapable of producing” and the IL-6 production entry was “incapable of producing”. Where the note is “data not shown”, the “IFN-β production in response to TLR9 stimulation compared with Gadd34 genetic inactivation” value is “far stronger capacity to inhibit” and the “IL-6 production compared with Gadd34 genetic inactivation” value is given as “superimposable to GADD34 deficiency”.
